This is an account of results in patent publication US20250235460A1, “COMBINATION THERAPY USING GLUCOSE-DEPENDENT INSULINOTROPIC POLYPEPTIDE RECEPTOR ANTAGONIST COMPOUNDS AND GLP-1 RECEPTOR AGONIST COMPOUNDS” (Pfizer Inc., priority 2024, published 2025).

The assay addresses human GLP-1R (Homo sapiens, UniProt P43220, G168S). The assay is described as follows: CHO GLP-1R Clone H6 cAMP HTRF agonist assay (Assay 1, high receptor density). The class given is cell-based. Particulars: for EC50: CHO GLP-1R clone H6, cAMP HTRF, geometric mean; for Emax: CHO GLP-1R clone H6, arithmetic mean, relative to saturating GLP-1 (1 μM), read-out: Assay 1 Emax (%). The source says: In Table 5 and Table 6, assay data are presented to two (2) significant figures as the geometric mean (EC50s) and arithmetic mean (Emax) based on the number of replicates listed (Number). A blank cell means there was no data for that Example or the Emax was not calculated.

Chain of human GLP-1R (P43220 24-463 G168S): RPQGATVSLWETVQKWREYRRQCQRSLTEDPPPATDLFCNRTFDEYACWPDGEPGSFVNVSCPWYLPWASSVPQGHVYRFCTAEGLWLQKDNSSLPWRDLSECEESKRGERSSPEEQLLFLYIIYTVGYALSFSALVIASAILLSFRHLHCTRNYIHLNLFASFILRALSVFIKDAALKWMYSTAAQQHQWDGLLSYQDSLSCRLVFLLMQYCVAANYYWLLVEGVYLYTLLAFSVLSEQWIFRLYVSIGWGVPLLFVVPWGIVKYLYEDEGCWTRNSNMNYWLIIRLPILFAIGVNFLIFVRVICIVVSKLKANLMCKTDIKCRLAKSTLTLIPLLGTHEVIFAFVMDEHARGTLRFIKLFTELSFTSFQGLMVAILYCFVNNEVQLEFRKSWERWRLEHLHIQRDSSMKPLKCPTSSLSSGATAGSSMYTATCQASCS

By EC50 is commonly meant the concentration at which the effect is half-maximal. A high value points to a need for much substance. What is called Emax is the size of the effect at its maximum, as opposed to the concentration needed. Turning to `O=C(O)c1ccc2nc(CN3CCN(c4cccc(OCc5ccc(Cl)cc5F)n4)CC3)n(C[C@@H]3CCO3)c2c1` [Compound 119B, 2-[(4-{6-[(4-chloro-2-fluorobenzyl)oxy]pyridin-2-yl}piperazin-1-yl)methyl]-1-[(2S)-oxetan-2-ylmethyl]-1H-benzimidazole-6-carboxylic acid], the EC50 is 0.21 µM and the Emax was found to be 66%.
For `Cc1n[nH]c(CCn2c(CN3CCC(c4cccc(OCc5ccc(Cl)cc5F)n4)CC3)nc3ccc(C(=O)O)cc32)n1` [Compound 341B, 2-[(4-{6-[(4-chloro-2-fluorobenzyl)oxy]pyridin-2-yl}piperidin-1-yl)methyl]-1-[2-(3-methyl-1H-1,2,4-triazol-5-yl)ethyl]-1H-benzimidazole-6-carboxylic acid] the same measures were 0.25 µM and 64%.
For `CCn1ccnc1Cn1c(CN2CCC(c3cccc(OCc4ccc(Cl)cc4F)n3)CC2)nc2ccc(C(=O)O)cc21` [Compound 314B, 2-[(4-{6-[(4-chloro-2-fluorobenzyl)oxy]pyridin-2-yl}piperidin-1-yl)methyl]-1-[(1-ethyl-1H-imidazol-2-yl)methyl]-1H-benzimidazole-6-carboxylic acid] the same measures were 0.39 µM and 69%.
For `COCCCn1c(CN2CCC(c3cccc(OCc4ccc(Cl)cc4F)n3)CC2)nc2ccc(C(=O)O)cc21` [Compound 313B, 2-[(4-{6-[(4-chloro-2-fluorobenzyl)oxy]pyridin-2-yl}piperidin-1-yl)methyl]-1-(3-methoxypropyl)-1H-benzimidazole-6-carboxylic acid] the same measures were 0.38 µM and 75%.
Turning to `COCCn1c(CN2CCC(c3ccc(F)c(OCc4ccc(Cl)cc4F)n3)CC2)nc2ccc(C(=O)O)cc21` [Compound 178B, 2-[(4-{6-[(4-chloro-2-fluorobenzyl)oxy]-5-fluoropyridin-2-yl}piperidin-1-yl)methyl]-1-(2-methoxyethyl)-1H-benzimidazole-6-carboxylic acid], it took 4.5 µM to reach a half-maximal effect (EC50) and the Emax came out at 48%.
Take `Cn1cncc1Cn1c(CN2CCC(c3cccc(OCc4ccc(F)cc4F)n3)CC2)nc2ccc(C(=O)O)cc21` [Compound 186B, 2-[(4-{6-[(2,4-difluorobenzyl)oxy]pyridin-2-yl}piperidin-1-yl)methyl]-1-[(1-methyl-1H-imidazol-5-yl)methyl]-1H-benzimidazole-6-carboxylic acid]: the EC50 was determined as 1.7 µM and the Emax came to 82%.
Take `O=C(O)c1ccc2nc(CN3CCC(c4cccc(OCc5ccc(Cl)cc5F)n4)CC3)n([C@@H]3CCOC3)c2c1` [Compound 268B, 2-[(4-{6-[(4-chloro-2-fluorobenzyl)oxy]pyridin-2-yl}piperidin-1-yl)methyl]-1-[(3R)-tetrahydrofuran-3-yl]-1H-benzimidazole-6-carboxylic acid]: the EC50 was greater than 20 µM.
Take `CN1CC(Cn2c(CN3CCC(c4cccc(OCc5ccc(Cl)cc5F)n4)CC3)nc3ccc(C(=O)O)cc32)CC1=O` (stereo not drawn) [Compound 317B, 2-[(4-{6-[(4-chloro-2-fluorobenzyl)oxy]pyridin-2-yl}piperidin-1-yl)methyl]-1-[(1-methyl-5-oxopyrrolidin-3-yl)methyl]-1H-benzimidazole-6-carboxylic acid]: the EC50 stood at 0.5 µM and the Emax is 69%.
`CC1(Cn2c(CN3CCC(c4cccc(OCc5ccc(Cl)cc5F)n4)CC3)nc3ccc(C(=O)O)cc32)CCO1` (stereo not drawn) [Compound 265B, 2-[(4-{6-[(4-chloro-2-fluorobenzyl)oxy]pyridin-2-yl}piperidin-1-yl)methyl]-1-[(2-methyloxetan-2-yl)methyl]-1H-benzimidazole-6-carboxylic acid]: the EC50 was greater than 15 µM and the Emax worked out at 100%.
As to `N#Cc1ccc(COc2cccc(C3CCN(Cc4nc5ccc(C(=O)O)nc5n4Cc4ncco4)CC3)n2)c(F)c1` [Compound 214B, 2-[(4-{6-[(4-cyano-2-fluorobenzyl)oxy]pyridin-2-yl}piperidin-1-yl)methyl]-3-(1,3-oxazol-2-ylmethyl)-3H-imidazo[4,5-b]pyridine-5-carboxylic acid], the Emax was 71%.
With `O=C(O)c1ccc2nc(CN3CCC(c4cccc(OCc5ccc(Cl)cc5F)n4)CC3)n(CCC3CCOCC3)c2c1` [Compound 340B, 2-[(4-{6-[(4-chloro-2-fluorobenzyl)oxy]pyridin-2-yl}piperidin-1-yl)methyl]-1-[2-(tetrahydro-2H-pyran-4-yl)ethyl]-1H-benzimidazole-6-carboxylic acid], it took 0.6 µM to reach a half-maximal effect (EC50) and the Emax was 70%.
As for `COCCn1c(CN2CCN(c3nc(OCc4ccc(Cl)cc4F)ccc3F)CC2)nc2ccc(C(=O)O)cc21` [Compound 179B, 2-[(4-{6-[(4-chloro-2-fluorobenzyl)oxy]-3-fluoropyridin-2-yl}piperazin-1-yl)methyl]-1-(2-methoxyethyl)-1H-benzimidazole-6-carboxylic acid], the response was half-maximal at 1.6 µM (EC50) and the Emax came out at 83%.
For the molecule `CC1(C)CC(Cn2c(CN3CCC(c4cccc(OCc5ccc(Cl)cc5F)n4)CC3)nc3ccc(C(=O)O)cc32)O1` (stereo not drawn) [Compound 235B, 2-[(4-{6-[(4-chloro-2-fluorobenzyl)oxy]pyridin-2-yl}piperidin-1-yl)methyl]-1-[(4,4-dimethyloxetan-2-yl)methyl]-1H-benzimidazole-6-carboxylic acid], the response was half-maximal at 0.39 µM (EC50) and the Emax was found to be 72%.
Taken in the same sequence, the figures for `Cc1ccccc1COc1cccc(C2CCN(Cc3nc4ccc(C(=O)O)cc4n3C)CC2)n1` [Compound 230B, 1-methyl-2-[(4-{6-[(2-methylbenzyl)oxy]pyridin-2-yl}piperidin-1-yl)methyl]-1H-benzimidazole-6-carboxylic acid] were 1.7 µM and 80%.
For `COCCn1c(CN2CCN(c3cccc(OCc4ccc(Cl)cc4F)n3)C(C)(C)C2)nc2ccc(C(=O)O)cc21` [Compound 182B, 2-[(4-{6-[(4-chloro-2-fluorobenzyl)oxy]pyridin-2-yl}-3,3-dimethylpiperazin-1-yl)methyl]-1-(2-methoxyethyl)-1H-benzimidazole-6-carboxylic acid] the same measures were 1.8 µM and 93%.
For the molecule `Cc1cc(Cn2c(CN3CCC(c4cccc(OCc5ccc(Cl)cc5F)n4)CC3)nc3ccc(C(=O)O)cc32)on1` [Compound 322B, 2-[(4-{6-[(4-chloro-2-fluorobenzyl)oxy]pyridin-2-yl}piperidin-1-yl)methyl]-1-[(3-methyl-1,2-oxazol-5-yl)methyl]-1H-benzimidazole-6-carboxylic acid], a half-maximal effect (EC50) was put at 1.4 µM and the Emax turned out to be 97%.
`O=C(O)c1ccc2nc(CN3CCC(c4cccc(OCc5ccc(Cl)cc5F)n4)CC3)n(CCn3cccn3)c2c1` [Compound 303B, 2-[(4-{6-[(4-chloro-2-fluorobenzyl)oxy]pyridin-2-yl}piperidin-1-yl)methyl]-1-[2-(1H-pyrazol-1-yl)ethyl]-1H-benzimidazole-6-carboxylic acid] returned an EC50 of 0.17 µM.
`CO[C@@H]1CCC[C@H]1n1c(CN2CCC(c3cccc(OCc4ccc(Cl)cc4F)n3)CC2)nc2ccc(C(=O)O)cc21` (stereo in doubt) [Compound 194B, 2-[(4-{6-[(4-chloro-2-fluorobenzyl)oxy]pyridin-2-yl}piperidin-1-yl)methyl]-1-[(1R,2R)-2-methoxycyclopentyl]-1H-benzimidazole-6-carboxylic acid]: the EC50 was found to be 0.075 µM and the Emax is 69%.
